The source of these data is US20130260436A1, “Methods of Identifying and Characterizing Natural Product Gene Clusters” (Victoria LInk Limited, priority 2010, published 2013).

A short description of data set [1]: Effect of pH on indigoidine stability (loss of colouration, A590). The settings on record: culture supernatant, 50 mM sodium phosphate buffer, 20 min. Format: physicochemical. The method, then:
(A) Diluted sterile supernatant from an indigoidine producing culture was incubated for 20 min with 50 mM sodium phosphate buffer at each of the indicated pH values in triplicate. Loss of colouration was then assessed by measuring A590. Error bars are presented as +/− one standard deviation. (B) Indigoidine reactions differing only in the pH of the buffer used are shown.
The supernatant from BpsA-expressing cultures reached a much higher A590 (˜1.2) than the maximum achieved from any in vitro experiments (˜0.3) (not shown). Without wishing to be bound by theory, the inventors hypothesized that that since indigoidine produced and exported from a cell in vivo was effectively removed from exposure to intracellular enzymes, the loss of in vitro product may have been due to enzymatic degradation in the in vitro assay preparations. This could be due to BpsA itself, the activating PPTase or an undetected contaminating species. To test this possibility, filter sterilized culture supernatant containing indigoidine was incubated with various concentrations of each enzyme preparation used for in vitro assays. No difference in pigment levels resulted from this treatment. It was concluded that the loss of pigmentation seen in vitro was not enzyme catalysed. […] A more detailed analysis of the relationship between pH and pigment stability was then conducted. […]

For another data set, the system named is E. coli. The class given is cell-based. The settings on record: high levels of active BpsA, excess L-Gln, extended time. The source says:
In one embodiment, activation of the NRPS BpsA then produces the dye, indigoidine. […] Due to this toxicity, E. coli cells expressing high levels of active BpsA in the presence of excess L-Gln for an extended period of time are not viable. Toxicity may be avoided by plating an E. coli reporter strain comprising a CNA expression construct on a selection medium lacking an inducer of BpsA expression. In one embodiment the inducer is IPTG.
We constructed plasmids that allowed IPTG regulated co-expression of a candidate PPTase and BpsA in E. coli BL21(DE3). To enable IPTG regulated co-expression the BpsA gene of S. lavendulae ATCC 11924 was cloned into pCDFDUET-1 (Novagen) and three candidate PPTases into the (origin of replication compatible) vector pET28a(+). […] In contrast, if IPTG was absent from the medium viable co-transformed cells were recovered with good efficiency (not shown). […] In order to circumvent this problem we employed auto-induction agar plates, prepared by addition of 1.5% agar to Studier ZYP-5052 auto-induction medium (Studier 2005). Use of auto-induction agar plates allowed for both rapid growth and efficient induction of pigment production following extended incubation at room temperature.
Initial trials were run using E. coli harbouring a P. putida PPTase expression plasmid. […]

For data set [2] the following is noted: Kuhn et al, 1965; cited from earlier work.
The test system of data set [3] is PcpS. Put plainly: Qualitative assessment of PcpS inhibition relative to 6-NOBP. The class given is biochemical, P. aeruginosa. The settings on record: each inhibitor 20 μM; 0.18 μM PcpS. Here is the method: Duplicate wells with different inhibitors added. The No PcpS wells have ddH2O added instead of PcpS. The BpsA only wells have DMSO added instead of an inhibitor. The 6-NOBP wells have had 6-NOBP added at a final concentration of 20 μM. The Bay 11-7085 wells have had Bay 11-7085 added to a final concentration of 20 μM.
Bay 11-7085 was then serially diluted from 20 μM to 0.625 μM across the wells. The reaction was initiated by the addition of PcpS to a final concentration of 0.18 μM and indigoidine production was then monitored at 590 nm. Each concentration was tested in triplicate and the average of the three wells was taken to calculate the maximum velocity. The maximum velocity in each well was expressed as a percentage of the maximum velocity in the wells where no Bay11-7085 was present. For qualitative assessment of Bay11-7085 mediated inhibition of PcpS relative to 6-NOBP, duplicate wells were established with either 20 μM of each inhibitor or with DMSO added instead of an inhibitor (positive control). For a negative control, ddH2O was added instead of PcpS. Reactions were initiated by addition of 20 μL of PcpS at a final reaction concentration of 0.18 μM (or H2O for the negative control) using an automatic dispensing Pipette. The plate was then shaken for 10 seconds at 1000 rpm to mix the compounds, and incubated on the benchtop until the positive control wells had gone dark blue.

Data set [4] deals with PcpS (Pseudomonas aeruginosa, UniProt Q9I4H2). The data set is described as follows: BpsA coupled PPTase inhibition assay, PcpS. Format: biochemical. The note with it: for IC50: 95% CI in parentheses; for Ki: Cheng-Prusoff, competitive inhibition.
In the next data set the target is Sfp (Bacillus spizizenii, UniProt G4NQW2). The data set is described as follows: BpsA coupled PPTase inhibition assay, Sfp. The class given is biochemical, B. subtilis subsp. spizizenii ATCC6633. The settings on record: for IC50: IC50, Sfp, 95% CI in parentheses; for Ki: Sfp, Cheng-Prusoff, competitive inhibition.
In another data set the target is PP1183 (Pseudomonas putida, UniProt Q88NM4). Put plainly: BpsA coupled PPTase inhibition assay, PP1183. The class given is biochemical, P. putida KT2440. The note with it: for IC50: IC50, PP1183, 95% CI in parentheses; for Ki: PP1183, Cheng-Prusoff, competitive inhibition.
The target in a further data set is T1, holo-BpsA (Streptomyces lavendulae, UniProt Q1MWN4).
T1 construct: 6His; made in house; host or cells: E. coli
T1 sequence (Q1MWN4 1-1282): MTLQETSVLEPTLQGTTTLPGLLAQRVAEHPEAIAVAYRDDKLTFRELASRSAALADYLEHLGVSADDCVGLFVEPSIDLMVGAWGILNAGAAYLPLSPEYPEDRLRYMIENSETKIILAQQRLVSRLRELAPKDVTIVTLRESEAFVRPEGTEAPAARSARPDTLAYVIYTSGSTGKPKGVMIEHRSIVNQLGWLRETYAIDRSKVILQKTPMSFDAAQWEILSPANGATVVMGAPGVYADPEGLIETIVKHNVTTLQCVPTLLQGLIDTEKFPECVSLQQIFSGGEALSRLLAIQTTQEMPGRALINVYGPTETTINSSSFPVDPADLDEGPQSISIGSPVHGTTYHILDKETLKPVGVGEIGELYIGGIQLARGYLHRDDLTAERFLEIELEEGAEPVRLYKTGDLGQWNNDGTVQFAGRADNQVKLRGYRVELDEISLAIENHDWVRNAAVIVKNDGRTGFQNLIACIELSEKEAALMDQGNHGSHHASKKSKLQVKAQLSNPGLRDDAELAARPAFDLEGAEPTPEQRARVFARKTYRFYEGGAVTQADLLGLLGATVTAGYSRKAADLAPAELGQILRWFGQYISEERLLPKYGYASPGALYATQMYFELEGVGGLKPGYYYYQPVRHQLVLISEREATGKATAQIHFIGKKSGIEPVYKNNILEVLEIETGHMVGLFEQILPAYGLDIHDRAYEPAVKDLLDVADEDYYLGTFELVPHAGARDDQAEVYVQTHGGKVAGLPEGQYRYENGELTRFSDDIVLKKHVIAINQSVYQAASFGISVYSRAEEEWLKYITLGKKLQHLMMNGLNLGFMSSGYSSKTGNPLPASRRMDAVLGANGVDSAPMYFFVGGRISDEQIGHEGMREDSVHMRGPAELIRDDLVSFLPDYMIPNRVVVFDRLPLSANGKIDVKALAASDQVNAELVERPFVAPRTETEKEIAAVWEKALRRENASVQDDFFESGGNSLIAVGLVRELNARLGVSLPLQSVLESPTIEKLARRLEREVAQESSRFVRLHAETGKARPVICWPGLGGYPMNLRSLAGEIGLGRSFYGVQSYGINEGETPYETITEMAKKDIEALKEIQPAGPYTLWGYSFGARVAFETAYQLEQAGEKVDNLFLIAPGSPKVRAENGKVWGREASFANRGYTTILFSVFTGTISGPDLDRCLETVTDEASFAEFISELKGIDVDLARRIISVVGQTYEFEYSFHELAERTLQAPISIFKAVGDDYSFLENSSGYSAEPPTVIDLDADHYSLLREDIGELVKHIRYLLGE
Put plainly: Inhibition of indigoidine synthesis by pre-activated holo-BpsA (counter-screen). The class given is biochemical, S. lavendulae ATCC 11924. The settings on record: pre-activated holo-BpsA in isolation.

Data set [5] has as its system PcpS. The data set is described as follows: Screening of the LOPAC1280 library for PcpS inhibitors with the BpsA coupled assay. The class given is biochemical, P. aeruginosa. The settings on record: compound approximately 18 μM; 0.18 μM PcpS.
Method: 1.8 μL of each compound from a Lopac^1280 library plate was added to 30 μL of 10% DMSO in MQ using a CyBio CyBi-well, giving a final compound concentration of approximately 18 μM. Next 50 μl, of a master mix containing 5 μM Co-enzyme A, 1.66 μM BpsA, 20 mM MgCl2, 5 mM ATP, 8 mM L-Gln, 100 mM Tris-HCl pH 7.8 and MQ was added. To initiate the reaction 20 μL of PcpS at a final reaction concentration of 0.18 μM and MQ was added rapidly, using an automatic dispensing Pipette. The plate was then shaken for 10 seconds at 1000 rpm to mix the compounds. The plate was then read 25 times to measure the Absorbance at 590 nm (with 20 second intervals between each read) in an EnSpire plate reader at 25° C. […] Negative and positive controls were established in wells in these columns, and used to monitor the reaction. […] Both control reactions were run in triplicate.
1.8 μL of each compound from a Lopac^1280 library plate was added to 304 of 10% DMSO in MQ using a CyBio CyBi-well, giving a final compound concentration of approximately 18 μM. Next 50 μL of a master mix containing 5 μM Co-enzyme A, 1.66 μM BpsA, 20 mM MgCl2, 5 mM ATP, 8 mM L-Gln, 100 mM Tris-HCl pH 7.8 and MQ was added. […] The plate was then read 25 times to measure the Absorbance at 590 nm (with 20 second intervals between each read) in an EnSpire plate reader at 25° C. […]
In another data set the target is all three PPTases. Put plainly: BpsA coupled PPTase inhibition assay, summary over all three PPTases.

PP1183, sequence (Q88NM4 entry or part of it): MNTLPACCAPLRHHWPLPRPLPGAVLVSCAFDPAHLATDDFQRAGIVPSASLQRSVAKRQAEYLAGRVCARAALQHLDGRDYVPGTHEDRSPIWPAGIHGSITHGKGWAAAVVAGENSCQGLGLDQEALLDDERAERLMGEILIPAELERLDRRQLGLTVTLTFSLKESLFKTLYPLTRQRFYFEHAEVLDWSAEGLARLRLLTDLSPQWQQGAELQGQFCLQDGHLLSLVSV
Sfp, sequence (G4NQW2 entry or part of it): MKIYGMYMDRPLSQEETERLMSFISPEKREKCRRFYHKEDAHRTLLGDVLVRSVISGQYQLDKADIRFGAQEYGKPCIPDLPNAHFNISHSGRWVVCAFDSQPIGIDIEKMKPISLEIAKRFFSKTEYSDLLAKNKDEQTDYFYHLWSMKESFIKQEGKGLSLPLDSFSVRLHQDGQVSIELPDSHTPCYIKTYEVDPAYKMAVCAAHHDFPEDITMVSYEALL
PcpS (Pseudomonas aeruginosa, UniProt Q9I4H2), sequence (Q9I4H2 entry or part of it): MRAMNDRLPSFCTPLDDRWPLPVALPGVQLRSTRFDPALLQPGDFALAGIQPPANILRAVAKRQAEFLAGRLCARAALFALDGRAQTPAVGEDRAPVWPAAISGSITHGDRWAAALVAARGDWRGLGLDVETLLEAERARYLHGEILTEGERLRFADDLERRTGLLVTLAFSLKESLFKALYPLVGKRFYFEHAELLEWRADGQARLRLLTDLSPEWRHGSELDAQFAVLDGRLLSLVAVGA
Method for all three PPTases: Each of the three PPTases was evaluated for inhibition across a two-fold serial dilution series of 6-NOBP (250-0.12 μM) with CoA concentration fixed at either 10 or 2.5 μM. […] Derived Ki values were most consistent between CoA concentrations when the Cheng-Prusoff equation for competitive inhibition was employed.
Triplicate two fold serial dilution series (250-0.12 μM) of the previously identified PPTase inhibitor 6-NOBP were established in a final volume of 50 ml 10% DMSO in a 96 wp. 100 μL of reaction mix (20 or 5 μM CoA, 5 mM ATP, 20 mM MgCl2, 8 mM L-Gln and 100 mM Tris-CL, 1.66 μM apo-BpsA, pH 7.8) was then added to each well. Reactions were then initiated by addition of 50 μL 0.32-1.0 μM PPTase in water to each well followed by mixing at 1000 rpm for 10 s. A590 values were then recorded and PPTase velocities determined as previously described.

With indigoidine, the “Pigment stability versus pH” value in [1] is on record as “decolouration occurred to a greater extent at higher pH”. For the same molecule, the “Toxicity to E. coli” value in the data set on E. coli is listed as “toxic to E. coli over time”. Further, the “Pigment stability versus pH (previous observations)” value in [2] is “unstable at alkaline pH”.

Turning to `CC(C)(C)c1ccc(S(=O)(=O)/C=C/C#N)cc1` [Bay11-7085], the “Qualitative inhibition of PcpS relative to 6-NOBP” value in the data set on PcpS [3] is listed as “clearly a stronger inhibitor of PcpS than 6-NOBP”.

`O=Nc1ccc2oc(=O)ccc2c1` [6-NOBP]: the IC50 on PcpS [4] (1.25 μM CoA) was found to be 4.05 µM; on PcpS [4] (5 μM CoA) it was 10.8 µM; on Sfp (1.25 μM CoA) it was 2.11 µM; at Sfp (5 μM CoA), 9.06 µM; at PP1183 (1.25 μM CoA) it was 3.7 µM; at PP1183 (5 μM CoA), 9.81 µM. The IC50 was 29.2 µM against holo-BpsA and 9.1 to 10.8 µM on all three PPTases (read-out: IC50 values, range over the three PPTases, CoA concentration set at 5 μM). Also, the Ki on PcpS [4] (1.25 μM CoA) worked out at 3.1 µM; on PcpS [4] (5 μM CoA) it was 4.7 µM; on Sfp (1.25 μM CoA), 0.7 µM; on Sfp (5 μM CoA) it was 1 µM; at PP1183 (1.25 μM CoA), 3.3 µM; at PP1183 (5 μM CoA), 6.8 µM. Further, the Ki at all three PPTases (read-out: K, values, range over the three PPTases, converted from IC50 with Km of each PPTase) was in the range of 0.5 to 7.5 µM. The “Outcome in high throughput screen for PcpS inhibitors” value in the data set on PcpS [5] is “weak PcpS inhibitor”.

One may read the IC50 as the point on the concentration scale where inhibition reaches its midpoint.
